Assay results taken from patent US10336792B2, “Antimicrobial peptide dendrimers” (priority 2014, dated 2019).
≈ marks a conversion by molar mass, not a printed value. Positions of bridges follow the written chain, without caps; N, C: chain ends. Non-standard residues stand in square brackets, D forms with d. Residues, ends and D or L forms follow the SMILES beside them. Groups on a side chain read outwards from the residue. Chains are numbered I, II in the order given. *: point of attachment. Lauroyl = CCCCCCCCCCCC(=O)*; dDap = NC[C@@H](N)C(=O)O; Dap = NC[C@H](N)C(=O)O

Legend:
Assay type in all cases: cell-based
[1] = test system: Pseudomonas aeruginosa (strain PA01); assay: microbe, parasite or virus in culture; details: strain
In short: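 Broth microdilution MIC against P. aeruginosa PAO1 in LB: peptides serially diluted by ⅔, bacteria added at OD600 0.001 and incubated 18–24 h at 37 °C. MTT added; MIC is the lowest concentration preventing visible growth.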

[2] = test system: Bacillus subtilis (strain BR151); details: strain BR151
Protocol: (§1) Antimicrobial activity was assayed against Bacillus subtilis (strain BR151), Escherichia coli (strain DH5α) and Pseudomonas aeruginosa (strain PA01). Microdilution broth method was used to determine the minimal inhibitory concentration (MIC). A colony of bacteria was grown in LB-medium overnight at 37° C. The concentration was quantified by measuring absorbance at 600 nm and diluted to OD600=0.1 (1×10^8 CFU/mL). The samples were prepared as stock solutions of 1 mg mL^−1 in H2O and diluted serially by ⅔ in nutrient LB in a 96-well microtiterplate (Cornstar, polypropylene, untreated). The sample solutions (50 μL) were mixed with the diluted bacterial suspension with an OD600 nm of 0.001 (50 μL). […] The plates were incubated at 37° C. until satisfactory growth (18-24 h). For each test, two columns of the plate were kept for sterility control (SC, broth only) and growth control (GC, broth with bacterial inoculums, no antibiotics). 10 μL of a solution of MTT (0.1% in H2O) was added to each well. The minimal inhibitory concentration (MIC) was defined as the lowest concentration of the antimicrobial substance (peptide dendrimer) that inhibited visible growth of the tested bacteria (yellow) with the unaided eye. For microbiological study the linear peptide LysTyrLysLysAlaLeuLysLysLeuAlaLysLeuLeu (SEQ ID No. 1) was used as reference.
(§2) The AMPD library was tested for their antimicrobial activity against B. subtilis BR151, a Gram-positive bacterium and E. coli DH5α, another Gram-negative bacterium, to cover a broader spectrum of different bacteria. […] Therefore no explicit SAR can be established, but clearly the hydrophobic amino acids Ala and Tyr seem to have a significant influence in reducing activity.

[3] = test system: Escherichia coli (strain DH5α); details: DH5α
Protocol: as §1, §2

SMILES	MIC P. aeruginosa PAO1 [1]	MIC B. subtilis BR151 [2]	MIC E. coli DH5α [3]
CC(C)C[C@H](NC(=O)[C@H](CCCNC(=N)N)NC(=O)[C@H](CCCCNC(=O)[C@H](CC(C)C)NC(=O)[C@@H](N)CCCNC(=N)N)NC(=O)[C@H](CC(C)C)NC(=O)[C@@H](N)CCCNC(=N)N)C(=O)NCCCC[C@H](NC(=O)[C@H](CC(C)C)NC(=O)[C@H](CCCNC(=N)N)NC(=O)[C@H](CCCCNC(=O)[C@H](CC(C)C)NC(=O)[C@@H](N)CCCNC(=N)N)NC(=O)[C@H](CC(C)C)NC(=O)[C@@H](N)CCCNC(=N)N)C(=O)N[C@@H](CCCNC(=N)N)C(=O)N[C@@H](CC(C)C)C(=O)N[C@@H](CSSC[C@H](NC(=O)[C@H](CC(C)C)NC(=O)[C@H](CCCNC(=N)N)NC(=O)[C@H](CCCCNC(=O)[C@H](CC(C)C)NC(=O)[C@H](CCCNC(=N)N)NC(=O)[C@H](CCCCNC(=O)[C@H](CC(C)C)NC(=O)[C@@H](N)CCCNC(=N)N)NC(=O)[C@H](CC(C)C)NC(=O)[C@@H](N)CCCNC(=N)N)NC(=O)[C@H](CC(C)C)NC(=O)[C@H](CCCNC(=N)N)NC(=O)[C@H](CCCCNC(=O)[C@H](CC(C)C)NC(=O)[C@@H](N)CCCNC(=N)N)NC(=O)[C@H](CC(C)C)NC(=O)[C@@H](N)CCCNC(=N)N)C(N)=O)C(N)=O [CCS-18 dimer, ((RL)4(KRL)2KRLC)2] (I: H-RLK([Leu-Arg])RLKRLC-NH2 / II: H-RLK([Leu-Arg])RLKRLC-NH2 / III: H-RLK([Leu-Arg])RL / IV: H-RLK([Leu-Arg])RL; amide I:6-III:C, II:6-IV:C; disulfide I:9-II:9; N-terminus assumed)	9 µg/mL (≈ 1.88 µM)	9 µg/mL (≈ 1.88 µM)	13 µg/mL (≈ 2.72 µM)
CC(C)C[C@H](NC(=O)[C@H](CCCCN)NC(=O)[C@H](CNC(=O)[C@H](CC(C)C)NC(=O)[C@H](CCCCN)NC(=O)[C@H](CNC(=O)[C@H](CC(C)C)NC(=O)[C@H](CCCCN)NC(=O)[C@H](CNC(=O)[C@H](CC(C)C)NC(=O)[C@@H](N)CCCCN)NC(=O)[C@H](CC(C)C)NC(=O)[C@@H](N)CCCCN)NC(=O)[C@H](CC(C)C)NC(=O)[C@H](CCCCN)NC(=O)[C@H](CNC(=O)[C@H](CC(C)C)NC(=O)[C@@H](N)CCCCN)NC(=O)[C@H](CC(C)C)NC(=O)[C@@H](N)CCCCN)NC(=O)[C@H](CC(C)C)NC(=O)[C@H](CCCCN)NC(=O)[C@H](CNC(=O)[C@H](CC(C)C)NC(=O)[C@H](CCCCN)NC(=O)[C@H](CNC(=O)[C@H](CC(C)C)NC(=O)[C@@H](N)CCCCN)NC(=O)[C@H](CC(C)C)NC(=O)[C@@H](N)CCCCN)NC(=O)[C@H](CC(C)C)NC(=O)[C@H](CCCCN)NC(=O)[C@H](CNC(=O)[C@H](CC(C)C)NC(=O)[C@@H](N)CCCCN)NC(=O)[C@H](CC(C)C)NC(=O)[C@@H](N)CCCCN)C(N)=O [MSt-136, (KL)8(BKL)4(BKL)2(BKL)] (I: H-KL[Dap]([Leu-Lys])KL[Dap]KL[Dap]KL-NH2 / II: H-KL[Dap]([Leu-Lys])KL[Dap]KL / III: H-KL[Dap]([Leu-Lys])KL / IV: H-KL[Dap]([Leu-Lys])KL; amide I:6-IV:C, I:9-II:C, II:6-III:C)	2 µg/mL (≈ 0.472 µM)	2 µg/mL (≈ 0.472 µM)	1 µg/mL (≈ 0.236 µM)

Results, then the molecule that gave them:

MIC P. aeruginosa PAO1 [1]	MIC B. subtilis BR151 [2]	MIC E. coli DH5α [3]	SMILES
6 µg/mL (≈ 1.42 µM)	2 µg/mL (≈ 0.472 µM)	2 µg/mL (≈ 0.472 µM)	CC(C)C[C@@H](NC(=O)[C@@H](CCCCN)NC(=O)[C@@H](CNC(=O)[C@@H](CC(C)C)NC(=O)[C@@H](CCCCN)NC(=O)[C@@H](CNC(=O)[C@@H](CC(C)C)NC(=O)[C@@H](CCCCN)NC(=O)[C@@H](CNC(=O)[C@@H](CC(C)C)NC(=O)[C@H](N)CCCCN)NC(=O)[C@@H](CC(C)C)NC(=O)[C@H](N)CCCCN)NC(=O)[C@@H](CC(C)C)NC(=O)[C@@H](CCCCN)NC(=O)[C@@H](CNC(=O)[C@@H](CC(C)C)NC(=O)[C@H](N)CCCCN)NC(=O)[C@@H](CC(C)C)NC(=O)[C@H](N)CCCCN)NC(=O)[C@@H](CC(C)C)NC(=O)[C@@H](CCCCN)NC(=O)[C@@H](CNC(=O)[C@@H](CC(C)C)NC(=O)[C@@H](CCCCN)NC(=O)[C@@H](CNC(=O)[C@@H](CC(C)C)NC(=O)[C@H](N)CCCCN)NC(=O)[C@@H](CC(C)C)NC(=O)[C@H](N)CCCCN)NC(=O)[C@@H](CC(C)C)NC(=O)[C@@H](CCCCN)NC(=O)[C@@H](CNC(=O)[C@@H](CC(C)C)NC(=O)[C@H](N)CCCCN)NC(=O)[C@@H](CC(C)C)NC(=O)[C@H](N)CCCCN)C(N)=O [MSt-154, (kl)8(bkl)4(bkl)2(bkl)] (I: H-[dK][dL][dDap]([dL-dK])[dK][dL][dDap][dK][dL][dDap][dK][dL]-NH2 / II: H-[dK][dL][dDap]([dL-dK])[dK][dL][dDap][dK][dL] / III: H-[dK][dL][dDap]([dL-dK])[dK][dL] / IV: H-[dK][dL][dDap]([dL-dK])[dK][dL]; amide I:6-IV:C, I:9-II:C, II:6-III:C)
12 µg/mL (≈ 2.69 µM)	3 µg/mL (≈ 0.673 µM)	>62 µg/mL	CC(C)C[C@H](NC(=O)[C@H](CC(C)C)NC(=O)[C@H](CCCCNC(=O)[C@H](CCCCN)NC(=O)[C@H](CCCCN)NC(=O)[C@H](CCCCNC(=O)[C@H](CC(C)C)NC(=O)[C@@H](N)CC(C)C)NC(=O)[C@H](CC(C)C)NC(=O)[C@@H](N)CC(C)C)NC(=O)[C@H](CCCCN)NC(=O)[C@H](CCCCN)NC(=O)[C@H](CCCCNC(=O)[C@H](CC(C)C)NC(=O)[C@@H](N)CC(C)C)NC(=O)[C@H](CC(C)C)NC(=O)[C@@H](N)CC(C)C)C(=O)NCCCC[C@H](NC(=O)[C@H](CC(C)C)NC(=O)[C@H](CC(C)C)NC(=O)[C@H](CCCCNC(=O)[C@H](CCCCN)NC(=O)[C@H](CCCCN)NC(=O)[C@H](CCCCNC(=O)[C@H](CC(C)C)NC(=O)[C@@H](N)CC(C)C)NC(=O)[C@H](CC(C)C)NC(=O)[C@@H](N)CC(C)C)NC(=O)[C@H](CCCCN)NC(=O)[C@H](CCCCN)NC(=O)[C@H](CCCCNC(=O)[C@H](CC(C)C)NC(=O)[C@@H](N)CC(C)C)NC(=O)[C@H](CC(C)C)NC(=O)[C@@H](N)CC(C)C)C(=O)N[C@@H](CCCCN)C(=O)N[C@@H](CCCCN)C(N)=O [MSt-180, (LL)8(KKK)4(KLL)2(KKK)] (I: H-LLK([Leu-Leu])KKKLLKKK-NH2 / II: H-LLK([Leu-Leu])KKKLL / III: H-LLK([Leu-Leu])KK / IV: H-LLK([Leu-Leu])KK; amide I:6-IV:C, I:9-II:C, II:6-III:C)
1 µg/mL (≈ 0.206 µM)	4 µg/mL (≈ 0.826 µM)	1 µg/mL (≈ 0.206 µM)	CCCCCCCCCCCC(=O)NCCCC[C@H](NC(=O)[C@H](CC(C)C)NC(=O)[C@H](CCCCN)NC(=O)[C@H](CCCCNC(=O)[C@H](CC(C)C)NC(=O)[C@H](CCCCN)NC(=O)[C@H](CCCCNC(=O)[C@H](CC(C)C)NC(=O)[C@H](CCCCN)NC(=O)[C@H](CCCCNC(=O)[C@H](CC(C)C)NC(=O)[C@@H](N)CCCCN)NC(=O)[C@H](CC(C)C)NC(=O)[C@@H](N)CCCCN)NC(=O)[C@H](CC(C)C)NC(=O)[C@H](CCCCN)NC(=O)[C@H](CCCCNC(=O)[C@H](CC(C)C)NC(=O)[C@@H](N)CCCCN)NC(=O)[C@H](CC(C)C)NC(=O)[C@@H](N)CCCCN)NC(=O)[C@H](CC(C)C)NC(=O)[C@H](CCCCN)NC(=O)[C@H](CCCCNC(=O)[C@H](CC(C)C)NC(=O)[C@H](CCCCN)NC(=O)[C@H](CCCCNC(=O)[C@H](CC(C)C)NC(=O)[C@@H](N)CCCCN)NC(=O)[C@H](CC(C)C)NC(=O)[C@@H](N)CCCCN)NC(=O)[C@H](CC(C)C)NC(=O)[C@H](CCCCN)NC(=O)[C@H](CCCCNC(=O)[C@H](CC(C)C)NC(=O)[C@@H](N)CCCCN)NC(=O)[C@H](CC(C)C)NC(=O)[C@@H](N)CCCCN)C(N)=O [MSt-267, (KL)8(KKL)4(KKL)2(KKLKC12)] (I: H-KLK([Leu-Lys])KLKKLKKLK(Lauroyl)-NH2 / II: H-KLK([Leu-Lys])KLKKL / III: H-KLK([Leu-Lys])KL / IV: H-KLK([Leu-Lys])KL; amide I:6-IV:C, I:9-II:C, II:6-III:C)
